These results are taken from patent US20250375461A1, “IDENTIFICATION OF A NEW POTENT INHIBITOR OF MYCOBACTERIAL GROWTH” (priority 2024, published 2025).

In brackets after ≈: the same amount, converted by molar mass. Like-named read-outs stand apart in the source and are kept apart here.

In assay [1] the test system is M. smegmatis. As to the kind of experiment: MIC assay: M. smegmatis with BI.aada. The class given is cell-based. As to conditions: Mycolicibacterium smegmatis. Here is the method:
FIG. 4, FIG. 5, and FIG. 6 show enlarged views of MIC Assay: M. smegmatis with BI.aada.
(§1) In FIG. 1, […]=0.5×MIC. […] Magnification is 1000×. The compound BI.aada also has an MIC of […] against the gram-negative E. coli WO0153, which has a leaky outer membrane, and no activity against E. coli K12, which has a normal membrane. […] The stubby phenotype is similar to that observed with NAG-thiazoline (lytic transglycosylase inhibitor) with E. coli. In FIG. 3, purple: no growth; pink: bacterial growth; and MIC determined as lowest concentration that inhibits growth: 50 μM.

In a further assay the test system is M. absescus. As to the kind of experiment: MIC against M. absescus. In kind it is cell-based.
Another assay concerns M. avium. The experiment in a line: MIC against M. avium. As to conditions: Mycobacterium avium. In kind it is cell-based.
For assay [2], the system named is E. coli WO0153. The experiment in a line: MIC assay: E. coli WO0153 (leaky outer membrane). In kind it is cell-based. The procedure: as §1
A further assay concerns E. coli K12. The experiment in a line: Activity against E. coli K12 (normal membrane). The class given is cell-based. The procedure: as §1
The test system of assay [3] is M. smegmatis. The experiment in a line: Microscopy of M. smegmatis in presence of BI.aada. The class given is cell-based. Here is the method: as §1
Assay [4] concerns E. coli WO0153. The experiment in a line: Microscopy of E. coli WO0153 in presence of BI.aada. In kind it is cell-based. The procedure:
as §1

Another assay deals with Bacillus cereus. The experiment in a line: Resazurin microtiter whole cell assay, MIC, B. cereus. In kind it is cell-based. Here is the method:
Each Ugi reaction was carried out using either propargyl amine or propiolic acid as the alkyne component to provide either propionamides or N-propargyl amides as the diamide products. While Ugi-reactions can sometimes require prolonged reaction times, we identified conditions that reduced the reaction time to 4-5 hours at elevated temperature and in many cases proceeded to completion, enabling use of the Ugi product directly in the next reaction.^49-51 The Ugi-derived terminal alkynes were then subjected to a copper accelerated azide-alkyne coupling reaction using a redox couple of copper powder and copper (II) sulfate. To further facilitate synthesis of the library we simplified the purification of the compounds by using the alkyne building blocks in excess for the copper accelerated azide-alkyne coupling reaction. This ensured complete consumption of the azido sugar 1, and the unreacted alkyne residue could be easily removed using a silica plug after the reaction, eliminating the need for column chromatography. Removal of trace copper salts from the reaction was carried out by incubating the reaction solution with a commercially available copper chelating resin prior to purification using the silica plug. The library of GNTs was screened for its ability to inhibit the growth of a panel of different Gram-positive bacteria. […]

The subject of a further assay is B. cereus. The experiment in a line: Standard bactericidal assay (colony counts), B. cereus. In kind it is cell-based. Here is the method: The library was initially screened against all test organisms at a single concentration (250 μM) (ESIt). This high initial concentration was chosen as many soluble derivatives of PG bind to bacterial autolysins with KD values in the high micromolar range.^53 Compounds showing at least 40% inhibition in growth were selected for further investigation. […] We identified two compounds that inhibited the growth of Bacillus cereus and Bacillus subtilis in the micromolar range (FIG. 9). […] Both BI.abcb and BI.fgba were screened in a standard bactericidal assay.^54 Briefly, B. subtilis and B. cereus were grown in either the absence or presence of inhibitor (at the MIC) for 4 hours.
The cells were harvested, washed and subject to serial dilution prior to plating on nutrient broth agar.

For another assay, the system named is Gram-negative bacteria. As to conditions: cited from earlier work.
The next assay relates to E. coli. As to conditions: NAG thiazoline treatment; cited from earlier work.

For `CCCCNC(=O)C(C(C)C)N(CC(c1ccccc1)c1ccccc1)C(=O)c1cn(C2OC(CO)[C@@H](O)C(O)C2NC(C)=O)nn1` (stereo partly drawn) [BI.aada], the MIC was 0.05 µM (≈ 0.0325 µg/mL) with M. smegmatis [1]; below 0.5 µM in the assay with M. absescus; below 0.5 µM with M. absescus (Feature 15); below 0.5 µM against M. avium; 50 µM (≈ 32.5 µg/mL) in the assay on E. coli WO0153 [2] (Escherichia coli, WO0153, read-out: MIC determined as lowest concentration that inhibits growth); 70 µM (≈ 45.6 µg/mL) in the assay on E. coli WO0153 [2] (Escherichia coli, E. coli WO0153, leaky outer membrane, read-out: MIC). In the assay on E. coli WO0153 [2] (Gram negative E. coli WO0153, Feature 16), this molecule came in with an MIC of 70 µM (≈ 45.6 µg/mL). In addition, the “activity against E. coli K12” value in the assay on E. coli K12 is “no activity”. Moreover, the “phenotype in FIG. 1” value in the assay with M. smegmatis [3] (25 nM=0.5×MIC, magnification 1000×) is reported as “aberrant division occurring along side wall”. Besides, the “cell morphology (microscopy)” value with M. smegmatis [3] (M. smegmatis in presence of BI.aada) and in the assay on E. coli WO0153 [4] (E. coli WO0153 in presence of BI.aada) was “altered cell morphology” throughout. In the assay on E. coli WO0153 [4] (sub-MIC treated E. coli WO153, 50 µM BI.aada, compared to control), the “phenotype in FIG. 2” value is on record as “clumping phenotype”.

For the molecule `COc1ccc(C(C(=O)NCc2ccccc2)N(Cc2ccccc2)C(=O)c2cn(C3OC(CO)C(O)C(O)C3NC(C)=O)nn2)cc1` (stereo not drawn) [BI.abcb], in the assay on Bacillus cereus, the MIC turned out to be 60 µM (≈ 39.5 µg/mL). The “nature of antibacterial action” value in the assay on B. cereus (colony counts similar to controls) is given as “bacteriostatic”. Also, the “Colony counts for growth in the presence of compound” value in the assay on B. cereus (inhibitor at the MIC, 4 hours) was 7.00±1.70×10^8 cfu mL^−1.

Consider `CC1=N[C@@H]2[C@@H](O)[C@H](O)[C@@H](CO)O[C@@H]2S1` [NAG thiazoline], for which the “minimum inhibitory concentration in whole cell assays” value in the assay with Gram-negative bacteria is reported as “do not demonstrate a measurable minimum inhibitory concentration”. Moreover, the “effect on E. coli cells” value in the assay on E. coli is on record as “formation of shorter cells without affecting cell viability”.

In the case of `CC(=O)N[C@H]1[C@H](O[C@H]2C[C@@H](C(=O)NCCS(=O)(=O)O)N[C@@H]2CO)O[C@H](CO)[C@@H](OS(=O)(=O)O)[C@@H]1O` [bulgecin A], the “minimum inhibitory concentration in whole cell assays” value in the assay with Gram-negative bacteria is “do not demonstrate a measurable minimum inhibitory concentration”.
